Measured values taken from patent US6204293A, “Inhibitors of protein isoprenyl transferases” (University of Pittsburgh, priority 1998, dated 2001).
Where a name gives a salt, the structure may show the parent alone.

molecular target: T1, Rat brain protein farnesyltransferase (Rattus norvegicus, UniProt Q02293+Q04631); test: % inhibition of farnesylation, scintillation proximity assay with biotin-K Ras B fragment; assay type: biochemical; conditions: Table 1; 1 × 10^-5 M
T1 construct: Rat brain protein farnesyltransferase activity is measured; from tissue; host or cells: rat brain
T1 sequence (Q02293 whole entry, the tested form may be a part, one chain of several): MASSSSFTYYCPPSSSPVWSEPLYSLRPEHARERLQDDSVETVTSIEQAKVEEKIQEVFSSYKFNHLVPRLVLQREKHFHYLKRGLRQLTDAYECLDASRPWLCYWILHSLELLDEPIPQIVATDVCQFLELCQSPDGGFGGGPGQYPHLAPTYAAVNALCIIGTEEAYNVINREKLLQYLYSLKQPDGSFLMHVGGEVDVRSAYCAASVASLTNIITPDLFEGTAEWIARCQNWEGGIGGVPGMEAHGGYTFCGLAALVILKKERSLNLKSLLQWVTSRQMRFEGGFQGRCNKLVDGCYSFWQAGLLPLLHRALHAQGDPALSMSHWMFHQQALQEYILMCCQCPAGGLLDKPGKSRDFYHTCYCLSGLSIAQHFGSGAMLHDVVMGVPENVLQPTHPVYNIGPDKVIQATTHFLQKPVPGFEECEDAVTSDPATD
How it was run: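 Rat brain enzyme, purified through three steps, in a scintillation proximity assay kit with biotin-K Ras B fragment substrate at 0.1 mM final. Value is % inhibition of farnesylation.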

Compound	% inhibition at 1 × 10^-5 M [%]
CSCC[C@H](NC(=O)c1ccc(CNc2ccc(O)cc2)cc1-c1ccccc1)C(=O)O [Example 689]	73
CSCC[C@H](NC(=O)c1ccc(CNc2cc(C(=O)O)cc(C(=O)O)c2)cc1-c1ccccc1)C(=O)O [Example 710]	45
CSCC[C@H](NC(=O)c1ccc(CNc2cc(C)ns2)cc1-c1ccccc1)C(=O)O [Example 373]	76

same assay, conditions: Table 2; 1 × 10^-6 M

% inhibition at 1 × 10^-6 M [%]	Compound
95	CSCC[C@H](NC(=O)c1ccc(NCC(CO)CC2CCCCC2)cc1-c1ccccc1C)C(=O)O (stereo partly shown) [Example 479]
98	CSCC[C@H](NC(=O)c1ccc(CN(C2CC2)C2(CC3CCCCC3)CC2)cc1-c1ccccc1C)C(=O)O [Example 324]
41	CSCC[C@H](NC(=O)c1ccc(N2CC(=O)NNC2=O)cc1-c1ccccc1)C(=O)O [Example 224]
69	CSCC[C@H](NC(=O)c1ccc(CNCc2ccccc2)cc1-c1ccccc1)C(=O)O.Cl [Example 936]
35	COc1ccccc1CCC(=O)Nc1ccc(C(=O)N[C@@H](CCSC)C(=O)O)c(-c2ccccc2C)c1 [Example 544]
95	CSCC[C@H](NC(=O)c1ccc(CCc2cnc(Oc3ccccc3)cn2)cc1-c1ccccc1C)C(=O)O [Example 813]

Continued, compound first:

Compound	% inhibition at 1 × 10^-6 M [%]
CSCC[C@H](NC(=O)c1ccc(CN(Cc2ccccc2)Cc2ccccc2)cc1-c1ccccc1C)C(=O)O [Example 512]	94
CSCC[C@H](NC(=O)c1ccc(CCc2cccc(-c3ccccc3)c2)cc1-c1ccccc1C)C(=O)[O-].[Li+] [Example 793]	94
CSCC[C@H](NC(=O)c1ccc(CN2CCN(c3ccccc3)CC2)cc1-c1ccccc1C)C(=O)O [Example 867]	71
CSCC[C@H](NC(=O)c1ccc(CNCCS)cc1-c1ccccc1)C(=O)O [Example 626]	61
CSCCC(NC(=O)c1ccc(NC(=O)c2cncnc2)cc1-c1ccccc1)C(=O)O (stereo not shown) [Example 219]	56
CSCC[C@H](NC(=O)c1ccc(/C=C/c2cccc3ccccc23)cc1-c1ccccc1C)C(=O)O [Example 466]	93
CSCC[C@H](NC(=O)c1ccc(NC(=O)Cc2ccccc2)cc1-c1ccccc1C)C(=O)O [Example 540]	40

same assay, conditions: Table 3; 1 × 10^-7 M

Compound	% inhibition at 1 × 10^-7 M [%]
CCSCC(CC1CCCCC1)N(Cc1ccc(C(=O)N[C@@H](CCSC)C(=O)O)c(-c2ccccc2C)c1)CC(C)C (stereo partly shown) [Example 945]	80
CCSC[C@H](CC1CCCCC1)N(Cc1ccc(C(=O)N[C@@H](CCSC)C(=O)O)c(-c2ccccc2C)c1)C(=O)c1ccccc1 [Example 949]	57
CSCC[C@H](NC(=O)c1ccc(CCc2ccc(Oc3ccccc3N)cc2)cc1-c1ccccc1C)C(=O)O [Example 857]	92
CSCC[C@H](NC(=O)c1ccc(CN[C@H](CSC(C)(C)C)CC2CCCCC2)cc1-c1ccccc1C)C(=O)O [Example 622]	95
CSCC[C@H](NC(=O)c1ccc(CCc2ccc(Oc3ccccc3Cl)cc2)cc1-c1ccccc1C)C(=O)O [Example 855]	92

same assay, conditions: Table 4; 1 × 10^-8 M

% inhibition at 1 × 10^-8 M [%]	Compound
90	CSCC[C@H](NC(=O)c1ccc(CN(CCc2ccccc2)c2cncnc2)cc1-c1ccccc1C)C(=O)O [Example 518]
95	CSCC[C@H](NC(=O)c1ccc(CN[C@H](CSC2CCCCC2)CC2CCCCC2)cc1-c1ccccc1C)C(=O)O [Example 766]
95	C=C[C@H](CC1CCCCC1)NCc1ccc(C(=O)N[C@@H](CCSC)C(=O)O)c(-c2ccccc2C)c1 [Example 619]

Further lines, the compound ahead of its results:

Compound	% inhibition at 1 × 10^-8 M [%]
CSCC[C@H](NC(=O)c1ccc(CN(Cc2ccccc2)c2cccc([N+](=O)[O-])c2)cc1-c1ccccc1C)C(=O)[O-].[Li+] [Example 842]	88
CSCC[C@H](NC(=O)c1ccc(CN2CCC[C@H]2COCC2CCCCC2)cc1-c1ccccc1C)C(=O)O [Example 992]	93

same assay, conditions: Table 6; ** footnote 0.01 μM (title: 0.01 mM)

Compound	% inhibition at 0.01 μM (**) [%]
CCSCC(CC1CCCCC1)NCc1cc(-c2ccccc2C)c(C(=O)N[C@@H](CCSC)C(=O)O)cc1OC (stereo partly shown) [Example 1337]	83

same assay, conditions: read-out: % inhibition at 0.01 μM (**); Table 6; ** footnote 0.01 μM (title: 0.01 mM)

Compound	inhibition at 0.01 µM [%]
COc1ccc(COC[C@H](CC2CCCCC2)OCc2ccc(C(=O)N[C@@H](CCSC)C(=O)O)c(-c3ccccc3C)c2)cc1 [Example 1051, N-[4-(3-cyclohexyl-1-(4-methoxybenzyloxy)prop-2-yloxymethyl)-2-(2-methylphenylbenzoyl]methionine, lithium salt]	79
CSCC[C@H](NC(=O)c1ccc(CO[C@H](COC2CCC2)CC2CCCCC2)cc1-c1ccccc1C)C(=O)O [Example 1345]	94
CC[S+]([O-])C[C@H](CC1CCCCC1)OCc1ccc(C(=O)N[C@@H](CCSC)C(=O)O)c(-c2ccccc2C)c1 (stereo partly shown) [Example 1310, Lithium Salt]	90

same assay, conditions: read-out: % inhibition at 0.1 μM (*); Table 6; * footnote 0.1 μM (title: 0.1 mM)

Compound	inhibition at 0.1 µM [%]
CSCC[C@H](NC(=O)c1ccc(CCC(=O)OC2CCCCC2)cc1-c1ccccc1C)C(=O)O [Example 1152, N-[4-(cyclohexyloxycarbonylethyl)-2-(2-methylphenyl)benzoyl]methionine]	96
CSCC[C@H](NC(=O)c1ccc(COC(CCC2CCCCC2)c2ncnn2C)cc1-c1ccccc1C)C(=O)O (stereo partly shown) [Example 1224, N-[4-(1-(1-Methyl-1,2,4-triaz-5-yl)-3-cyclohexylpropan-1-yloxymethyl)-2-(2-methylphenyl)benzoyl]methionine lithium salt]	88

same assay, conditions: read-out: % inhibition at 1 × 10^-6 M

Compound	inhibition at 1 µM [%]
CSCC[C@H](NC(=O)c1ccc(COCc2ccsc2)cc1-c1ccccc1C)C(=O)O [Example 274, [4-(3-thienylmethoxymethyl)-2-(2-methylphenyl)benzoyl]methionine Lithium salt]	94
CSCC[C@H](NC(=O)c1ccc(COCc2cccs2)cc1-c1ccccc1C)C(=O)O [Example 273, [4-(2-thienylmethoxymethyl)-2-(2-methylphenyl)benzoyl]methionine Lithium salt]	96

same assay, conditions: read-out: % inhibition at 1 × 10^-6 M; Table 2; 1 × 10^-6 M

Compound	inhibition at 1 µM [%]
CSCC[C@H](NC(=O)c1ccc(COCC2CCOC2)cc1-c1ccccc1)C(=O)O (stereo partly shown) [Example 287, [4-(3-tetrahydrofurylmethyloxymethyl)-2-phenylbenzoyl]methionine]	24
CSCC[C@H](NC(=O)c1ccc(COCc2ccc(-c3ccc(F)cc3)o2)cc1-c1ccccc1C(F)(F)F)C(=O)O [Example 872, N-[4-(5-(4-fluorophenyl)furan-2-ylmethoxymethyl)-2-(2-trifluoromethylphenyl)benzoyl]methionine Lithium salt]	74
COc1ccc(CCOCc2ccc(C(=O)N[C@@H](CCSC)C(=O)O)c(-c3ccccc3C)c2)cc1 [Example 937, N-[4-(2-(4-methoxyphenyl)ethoxymethyl)-2-(2-methylphenylbenzoyl]methioninelithium salt]	95

same assay, conditions: read-out: % inhibition at 1 × 10^-7 M

Compound	inhibition at 0.1 µM [%]
CSCC[C@H](NC(=O)c1ccc(COC2CCC(NC(=O)OC(C)(C)C)CC2)cc1-c1ccccc1C)C(=O)O (stereo partly shown) [Example 817, N-[4-(4-t-butoxycarbonylaminocyclohexyloxymethyl)-2-(2-methylphenyl)benzoyl]methionine lithium salt]	60
CSCC[C@H](NC(=O)c1ccc(COCCc2ccc(-c3ccc(Cl)cc3)o2)cc1-c1ccccc1C)C(=O)O [Example 536, N-[4-(5-(4-chlorophenyl)furan-2-ylethoxymethyl)-2-(2-methylphenyl)benzoyl]methionine lithium salt]	79
CSCC[C@H](NC(=O)c1ccc(COCc2ccc(-c3ccc(SC)cc3)o2)cc1-c1ccccc1C)C(=O)O [Example 447, N-[4-(5-(4-methylthiophenyl)furan-2-ylmethoxymethyl)-2-(2-methylphenyl)benzoyl]methionine lithium salt]	91
CSCC[C@H](NC(=O)c1ccc(COc2ccc(Oc3ccccc3)cc2)cc1-c1ccccc1C)C(=O)O [Example 795, N-[4-(4-phenoxyphenoxymethyl)-2-(2-methylphenyl)benzoyl]methionine lithium salt]	87

same assay, conditions: read-out: % inhibition at 1 × 10^-7 M; Table 3; 1 × 10^-7 M

Compound	inhibition at 0.1 µM [%]
CSCC[C@H](NC(=O)c1ccc(COCC2CCC(c3ccc(Cl)cc3)O2)cc1-c1ccccc1C)C(=O)O (stereo partly drawn) [Example 822, N-[4-(5-syn(4chlorophenyl)tetrahydrofuran-2-ylmethoxymethyl)-2-(2-methylphenyl)benzoyl]methionine lithium salt]	93
CSCC[C@H](NC(=O)c1ccc(COCc2cccc(N(C)C)c2)cc1-c1ccccc1C)C(=O)O [Example 941, N-[4-(3-N,N-dimethylaminobenzyloxymethyl)-2-(2-methylphenyl)benzoyl]methionine lithium salt]	90
CSCC[C@H](NC(=O)c1ccc(COCc2ccc(C)o2)cc1-c1ccccc1C)C(=O)O [Example 532, N-[4-(5-methylfuran-2-ylmethoxymethyl)-2-(2-methylphenyl)benzoyl]methioninelithium salt]	88

same assay, conditions: read-out: % inhibition at 1 × 10^-8 M

Compound	inhibition at 0.01 µM [%]
CSCC[C@H](NC(=O)c1ccc(COCc2cnc(-c3ccccc3Cl)s2)cc1-c1ccccc1C)C(=O)O [Example 897, N-[4-(2-(2-chlorophenyl)thiazol-5-ylmethoxymethyl)-2-(2-methylphenyl)benzoyl]methionine lithium salt]	76
CSCC[C@H](NC(=O)c1ccc(COCc2oc(-c3ccc(Cl)cc3)c(Cl)c2Cl)cc1-c1ccccc1C)C(=O)O [Example 829, N-[4-(3,4-dichloro-5-(4-chlorophenyl)furan-2-ylmethoxymethyl)-2-(2-methylphenyl)benzoyl]methionine lithium salt]	92
